Assay results published in patent US20120129712A1, “ANTIBODIES DIRECTED TO TRA ANTIGENS, AND METHODS OF PRODUCTION, SCREENING AND ANALYSIS OF SAID ANTIBODIES, AS WELL AS METHODS OF ANALYSIS OF STEM CELLS AND CANCER CELL” (GLYKOS FINLAND OY, priority 2009, published 2012).
Entries after “also recorded” stand apart in the source; their conditions may differ.

Tests used:
[1] = tested on: Tra-1-60 antibody; test: Glycan microarray analysis (Consortium for Functional Glycomics printed array v3.2), binding of Tra-1-60
Experimental: (§1) Tra-1-81 and Tra-1-60 antibodies were from Chemicon (MAB4381 and MAB4361, respectively).
(§2) Glycan microarray analysis was carried out by the Consortium for Functional Glycomics. Glycan microarrays were printed as described (Blixt 2004). Version 3.2 of the human printed glycan array was used for analysis. Binding analysis was performed at […] of antibody. Data are reported as average RFU of 6 replicates after removal of highest and lowest values.

[2] = tested on: Tra-1-81 antibody; test: Glycan microarray analysis (Consortium for Functional Glycomics printed array v3.2), binding of Tra-1-81; design: RFU (glycan binding signal of Tra-1-81): dose or concentration left out as unconfirmed; details: for RFU (glycan binding signal of Tra-1-81): Tra-1-81 (Chemicon MAB4381), average RFU of 6 replicates after removal of highest and lowest values; for binding of Tra-1-81 to the glycan, in words: glycan microarray
Experimental: as §1, §2

| binding of Tra-1-60 to the glycan, in words [1] | RFU (glycan binding signal of Tra-1-81) [2] | binding of Tra-1-81 to the glycan, in words [2] | Substance | binding of Tra-1-81 to the glycan, in words ([2]; listed as Galβ1-3GlcNAcβ1-3Galβ1-4GlcNAc) |
| --- | --- | --- | --- | --- |
| exclusively bound | 721 RFU |  | Galb1-3GlcNAcb1-3Galb1-4GlcNAcb-Sp0 [Chart # 130] | binding; also recorded: specifically bound |
| very weak or non-essential binding |  | weakly bound | Galb1-3GlcNAcb1-3Galb1-4Glcb-Sp10 [Chart # 131] |  |
|  | 147 RFU | specifically bound | Galb1-3GlcNacb1-3(Galb1-3GlcNacb1-3Galb1-4GlcNacb1-6)Galb1-4Glcb-Sp0 [Chart # 379] |  |
|  |  | weakly bound | Lewis a |  |
